This note sets out measurements from patent publication US6436948B1, “Method for the treatment of psoriasis and genital warts” (priority 1995, dated 2002).

Data set [1] concerns DU-145 tumors. Kind of data set: DU-145 xenograft in NCr nude mice. Format: in vivo, human. The following applies: 25 mg/kg twice a day on days 0 through 4, NCr nude mice. The method, then: (§1) FIG. 5 is a graph of the inhibition of human tumor growth by […]. Three to six week old NCr nude mice were inoculated subcutaneously in each flank with 2×10^6 HepG2 or DU-145 cells. Treatment was started when the tumors were in an advanced stage of growth. Drugs were administered twice a day on days 0 through 4 and tumor sizes were measured on the indicated days. […] Each data point represents the means±SD of 10 tumors in graph A and six tumors in graph B.
(§2) Three to six-week-old NCr nude mice (Taconic Immunodeficient Mice and Rats) were inoculated s.c. in each flank with 2×10^6HepG2 or DU-145 cells and tumors were allowed to grow. Treatment was started when the tumors were 100-250mg as determined by caliper measurement and calculated according to the formula:
(§3) Tumor Weight(mg)=length(mm)×width(mm^2)÷2
(§4) Drugs were given at the indicated doses on days 0 through 4 and tumor sizes were measured every several days. The tumor growth curves were generated as described in Bell, et al., Cancer(phila.) 36:2437-2440 (1975), and are illustrated in FIGS. 5(a) and 5(b).
(In general: In xenograft studies the graft and the host belong to different species.)

Data set [2] concerns KB nasopharyngeal carcinoma cell line. Kind of data set: In vitro cytotoxicity, methylene blue assay / cell count: KB. Format: cell-based. As to conditions: three generations, mean ± standard deviation of five experiments, read-out: ID50 (the source's name).
Data set [3] concerns HepG2 cells. Kind of data set: In vitro cytotoxicity, methylene blue assay / cell count: HepG2. Format: cell-based. As to conditions: three generations, mean ± standard deviation of five experiments, read-out: ID50 (the source's name).
Data set [4] has as its system NCr nude mice. The format is in vivo. As to conditions: mouse, in vivo, 25 mg/kg. The method, then: as §4
Toxicity was evaluated by changes in body weight.

Data set [5] relates to HepG2 tumors. Kind of data set: HepG2 xenograft in NCr nude mice. As to conditions: 25 mg/kg twice a day on days 0 through 4, NCr nude mice. Format: in vivo, human. The method, then: as §1, §2, §3, §4
The subject of data set [6] is CEM cells. Kind of data set: In vitro cytotoxicity, methylene blue assay / cell count: CEM. The format is cell-based. The following applies: three generations, mean ± standard deviation of five experiments, read-out: ID50 (the source's name).
For data set [7], the system named is PC-3 prostate carcinoma line. Kind of data set: In vitro cytotoxicity, methylene blue assay / cell count: PC-3. Format: cell-based. The following applies: three generations, mean ± standard deviation of five experiments, read-out: ID50 (the source's name).
Data set [8] has as its system DU-145 prostate carcinoma line. Kind of data set: In vitro cytotoxicity, methylene blue assay / cell count: DU-145. The format is cell-based. The following applies: read-out: ID50 (the source's name).
In data set [9] the test system is 2.2.15 line. Kind of data set: In vitro cytotoxicity, methylene blue assay / cell count: 2.2.15. The format is cell-based. As to conditions: three generations, mean ± standard deviation of five experiments, read-out: ID50 (the source's name).
Experimental: Cells in logarithmic growth were plated at a density of 5000 cells/mL/well in 24-well plates. Drugs were added to the cells at different dosages and cultures were maintained for a period of three generations. At the end of this time, methylene blue assays were performed and/or cell numbers were directly counted. […] IC50 values were determined by interpolation of the plotted data. Each value shown is the mean± standard deviation of five experiments with each data point done in duplicate.
HepG2 cells originate from hepatocellular carcinoma and the 2.2.15 line is derived from HepG2 cells which were transfected with a copy of the hepatitis B virus genome.
For data set [10], the system named is tumor cell lines tested. Kind of data set: In vitro cytotoxicity, statement on all tumor cell lines tested. The format is cell-based. As to conditions: all of the tumor cell lines tested.

Each structure is given as a SMILES string. Like-named read-outs stand apart in the source and are kept apart here. Where only a bound is given, the exact number is not on record here.

With `Nc1ccn([C@@H]2O[C@H](CO)[C@@H](O)[C@@H]2O)c(=O)n1` [AraC, Cytosine arabinoside], in data set [1], the “Effect on DU-145 tumors in words” value is given as “ineffective”. The IC50 turned out to be 152 ± 10 nM in data set [2]; 125 ± 13 nM in data set [3] (Homo sapiens); 30 ± 10 nM in data set [6] (Homo sapiens, CCRF-CEM); 200 ± 78 nM in data set [7]; 170 ± 35 nM in [8] (Homo sapiens). Also, the “Toxicity as indicated by weight loss of the animals” value in [4] was “equally toxic”. The “Effect on HepG2 tumors in words” value is “ineffective” in data set [5] and “inactive” in data set [5] (listed as arac).

For `O=c1ccn(C2COC(CO)O2)c(=O)[nH]1` (single isomer, unassigned; (-)) [(−)-OddU], the IC50 in data set [9] is greater than 30000 nM; in [2], greater than 30000 nM; in [3], greater than 30000 nM; in [6], greater than 30000 nM; in data set [7] it was greater than 30000 nM; in data set [8] (three generations, mean ± standard deviation of five experiments) it was greater than 30000 nM. In addition, the Cytotoxicity in words entry in [10] is reported as “not toxic”.
